Reference: PubChem BioAssay (NCI)
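Compound exposure: 48 hours, 5 concentrations, 96-well plates. Abbreviation: GI50, concentration required for 50% inhibition of growth. TGI denotes the concentration required for complete inhibition of growth.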

Experiments:
Test in all cases: NCI-60 cell line screen, 48 h
[1] = tested on: SK-OV-3 ovarian
[2] = tested on: IGROV1 ovarian
[3] = tested on: KM12 colon
[4] = tested on: SR leukemia
[5] = tested on: HCC-2998 colon
[6] = tested on: A549 NSCLC
[7] = tested on: RPMI-8226 leukemia
[8] = tested on: OVCAR-4 ovarian
[9] = tested on: TK-10 renal
[10] = tested on: U251 CNS
[11] = tested on: SK-MEL-28 melanoma
[12] = tested on: UO-31 renal
[13] = tested on: NCI-H23 lung
[14] = tested on: SNB-75 CNS
[15] = tested on: CAKI-1 renal
[16] = tested on: SF-539 CNS
[17] = tested on: A498 renal

SMILES | TGI [1] [µM] | TGI [2] [µM] | TGI [3] [µM] | TGI [4] [µM] | TGI [5] [µM] | TGI [6] [µM] | TGI [7] [µM] | TGI [8] [µM] | TGI [9] [µM] | TGI [10] [µM] | TGI [11] [µM] | TGI [12] [µM] | TGI [13] [µM] | TGI [14] [µM] | TGI [15] [µM] | TGI [16] [µM] | TGI [17] [µM] | GI50 [5] [µM]
COc1cc(C2C(Cl)C(=O)N2NC(=O)Cc2ccccc2)ccc1O (configuration not stated) | > 100 | > 100 | > 100 | 83.4 | > 100 | > 100 | > 100 | > 100 | > 100 | > 100 | > 100 | > 100 | > 100 | > 100 | > 100 |  |  | 
Cc1cc(C)c(NS(=O)c2cccc([N+](=O)[O-])c2)c(C)c1 (configuration not stated) |  |  | > 100 | > 100 |  | > 100 | > 100 |  | > 100 | > 100 | > 100 | > 100 | > 100 |  |  | > 100 | > 100 | 
COCC12CC(CC1=O)C1C2ON2c3ccccc3C(=O)C12c1ccccc1 (configuration not stated) | > 100 | > 100 |  | > 100 | > 100 | > 100 | > 100 | > 100 |  | > 100 | > 100 | > 100 | > 100 | > 100 |  | > 100 | > 100 | 
CC(C)(C)C(=O)[CH-]C(=O)C(F)(F)C(F)(F)C(F)(F)F.CC(C)(C)C(=O)[CH-]C(=O)C(F)(F)C(F)(F)C(F)(F)F.[O-]CC1OC(O)C(O)C(O)C1O.[O-]CC1OC(O)C(O)C(O)C1O.[Ti+4] | > 100 | > 100 | > 100 | > 100 | > 100 | > 100 | > 100 | > 100 | > 100 | > 100 | > 100 | > 100 | > 100 |  | > 100 | > 100 |  | > 100
CCOC(=O)C1CC/C(=C(/C#N)C(=O)OC)N1 (configuration not stated) | > 100 | > 100 | > 100 | > 100 | > 100 | > 100 | > 100 | > 100 | > 100 | > 100 | > 100 | > 100 | > 100 | > 100 | > 100 | > 100 | > 100 | 
O=C(O)Cc1ccc2c(c1O)C(=O)c1c(ccc(CC(=O)O)c1O)C2=O | > 100 | > 100 | > 100 | > 100 | > 100 | > 100 | > 100 | > 100 | > 100 | > 100 | > 100 |  | > 100 | > 100 | > 100 | > 100 | > 100 | 
O=S(Cc1cc2c(cc1Br)OCO2)c1ccccc1 (configuration not stated) | > 100 | > 100 | 59.4 |  | > 100 | > 100 | 59.4 | > 100 | > 100 | > 100 | > 100 | > 100 | > 100 | > 100 | > 100 | 91.2 | > 100 | 
O=C1C=C(Nc2ccccc2C(=O)CC(=O)C(=O)Nc2ccc(Cl)c(Cl)c2)c2ccccc2C1=O | > 100 | > 100 | > 100 | > 100 | > 100 | > 100 | > 100 | > 100 |  | > 100 | 37.4 | > 100 | > 100 |  | > 100 | > 100 | > 100 | 
CCOC(=O)c1cn2c([nH]c3ccccc32)c(C#N)c1=O | > 100 | > 100 | > 100 | > 100 | > 100 | > 100 |  | > 100 | > 100 | > 100 | > 100 | > 100 | > 100 | > 100 | > 100 | > 100 | > 100 | 
O=C1C2Nc3ccccc3SC2C(=O)N1c1cccc([N+](=O)[O-])c1 (configuration not stated) | > 100 | > 100 | > 100 | > 100 | > 100 | > 100 | > 100 | > 100 | > 100 | > 100 | > 100 | > 100 | > 100 | > 100 | > 100 | > 100 | > 100 | 
Cc1nc(N)sc1C(=O)/C=C/c1ccc([N+](=O)[O-])cc1 | > 100 | > 100 | > 100 |  | > 100 | > 100 | > 100 |  | > 100 | > 100 | > 100 | > 100 | > 100 | > 100 | > 100 | > 100 | > 100 | 
CCCCCn1cnc2c1S(=O)(=O)N(C)C(NC(=O)c1ccccc1)=N2 | > 100 | > 100 | > 100 | > 100 | > 100 | > 100 | > 100 | > 100 | > 100 | > 100 | > 100 | > 100 | > 100 | > 100 | > 100 | > 100 | > 100 | 
Cc1cc(=O)[nH]c(CNC(=O)Cc2ccccc2)n1 | > 100 | > 100 | > 100 |  | > 100 | > 100 | > 100 | > 100 | > 100 |  | > 100 | > 100 | > 100 | > 100 | > 100 | > 100 | > 100 | 
COC(=O)C(=O)C1CCCCC(C2=NC3NN=C(N)N3C2=O)C1=O (configuration not stated) | > 100 | > 100 | > 100 | > 100 | > 100 | > 100 |  | > 100 | > 100 | > 100 | > 100 | > 100 | > 100 | > 100 | > 100 | > 100 | > 100 | 
CCOC(=O)c1c(C(F)(F)F)oc2c1ccc1nc3nonc3nc12 | 35.7 | 55.7 | 51.3 | 17.7 | 47.6 | 35 | > 42.3 | 24.9 | 36.4 | 29.1 | 27.3 | 33.4 | 18.3 | 30 | 27.3 | 32 | 30.7 | 
CC(C)c1cccc(C(C)C)c1NC1=CC(=O)C(=O)c2ccccc21 | > 100 | > 100 | > 100 | > 100 | > 100 | > 100 | > 100 |  | > 100 | > 100 | > 100 | > 100 | > 100 |  | > 100 | > 100 | > 100 | 
Cn1c2c(cc(-c3ccccc3)c1=O)COc1ccccc1-2 | 86.8 | > 100 | 29 | > 100 | > 100 | > 100 | 42.1 | > 100 |  | > 100 | 84.6 | 63.3 | > 100 | > 100 | > 100 | > 100 | > 100 | 
CO[C@H](c1ccccc1)[C@H](C)N(C)c1ccc2ccccc2c1C1=NC(C)(C)CO1 | 33.3 | > 100 | 40.2 | 50.1 |  | 35.2 | 53.2 |  | 61.8 | 30.5 | 34 | 27.9 | 31 | 32.4 |  | 29.9 |  | 
CCCCCC(=O)Cc1cc(OC)cc2c1C(=O)Oc1cc(O)c(C(=O)O)c(CC(=O)CCCCC)c1O2 | > 100 | > 100 | > 100 | > 100 | > 100 | > 100 | > 100 |  | > 100 | 29.3 |  |  | 37.1 | > 100 | > 100 |  | > 100 | 
N#C/C(=C\c1ccc(O)cc1O)C(N)=O | > 100 | > 100 | > 100 |  | > 100 | > 100 | > 100 | > 100 | > 100 | > 100 | > 100 | > 100 | > 100 | 67.4 | > 100 | > 100 | > 100 | 
CC1=NN(c2ccccc2)C(=O)C1=C1SCCCS1 | > 100 | > 100 | 66 | 34.5 | > 100 | > 100 | 46.1 |  | > 100 | 37.4 | > 100 | > 100 | > 100 | > 100 | 52.1 |  | 90.7 | 
Nc1ccc(C(=O)NN2C(=O)C(Cl)C2c2cccc([N+](=O)[O-])c2)cc1 (configuration not stated) | 33.3 | 30.8 | 30.6 |  | 39.5 | > 100 | 71.2 | 33.4 | 35.3 | 27.3 | 38.5 | 31.3 | 34.5 | 35.6 | 36 | 35.1 | 45.4 | 
COC1=CC(=O)c2ccccc2C1(C)C1=NC(C)(C)CO1 (configuration not stated) | > 100 | > 100 | > 100 | > 100 |  | > 100 | > 100 | > 100 | > 100 | > 100 | > 100 | > 100 | > 100 | > 100 | > 100 | > 100 |  | 
